In patent US11339171B2, “MDM2 inhibitors” (Gan & Lee Pharmaceuticals, priority 2017, dated 2022) one finds IC50 data, which are given here for nine compounds.

T1 sequence (Q00987 whole entry): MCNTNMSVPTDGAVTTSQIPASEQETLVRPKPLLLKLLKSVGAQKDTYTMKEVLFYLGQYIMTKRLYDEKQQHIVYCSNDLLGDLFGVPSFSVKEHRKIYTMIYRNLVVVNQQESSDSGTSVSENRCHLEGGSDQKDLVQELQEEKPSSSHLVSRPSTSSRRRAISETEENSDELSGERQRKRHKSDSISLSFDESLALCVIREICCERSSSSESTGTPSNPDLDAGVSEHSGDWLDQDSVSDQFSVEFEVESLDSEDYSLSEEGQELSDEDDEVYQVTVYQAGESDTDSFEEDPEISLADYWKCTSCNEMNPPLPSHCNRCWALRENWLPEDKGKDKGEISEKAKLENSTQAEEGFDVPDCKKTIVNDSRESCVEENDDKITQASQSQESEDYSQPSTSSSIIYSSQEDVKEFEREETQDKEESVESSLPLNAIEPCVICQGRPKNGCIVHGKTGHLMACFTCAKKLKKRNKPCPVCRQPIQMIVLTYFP

The assay has as its target T1, MDM2 (Homo sapiens, UniProt Q00987).
T1 construct: made in house
The assay can be described thus: Inhibition test of MDM2-P53 (GST-MDM2, Biotin-P53, Anti-GST-Tb, SA-XL665). The class given is binding. In outline: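 HTRF-type assay using 4 nM GST-MDM2 (final), Biotin-P53, SA-XL665 and anti-GST-Tb in PBS with 0.1% BSA, 5 mM DTT and 1 mM AEBSF. Compounds in 5-fold serial dilutions over twelve points; incubation 90 min at 25° C with shaking before plate-reader read-out.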
Regarding `COc1nc(N2CCC2)ncc1-c1nc2c(n1C(C)C)[C@]1(C(=O)Nc3cc(Cl)ccc31)N(c1cc(Cl)ccc1C)C2=O` [Example R-117, (R)-2′-(2-(12zetidine-1-yl)-4-methoxypyrimidin-5-yl)-6-chloro-5′-(5-chloro-2-methylphenyl)-3′-isopropyl-3′H-spiro[dihydroindole-3,4′-pyrrolo[3,4-d]imidazole]-2,6′(5′ H)-dione], the IC50 (in general, the midpoint of a concentration-inhibition curve) was found to be 0.233 µM.
`COc1nc(C)ncc1-c1nc2c(n1C(C)C)[C@]1(C(=O)Nc3cc(Cl)ccc31)N(c1cc(Cl)ccc1C)C2=O` [Example R-118, (R)-6-chloro-5′-(5-chloro-2-methylphenyl)-3′-isopropyl-2′-(4-methoxy-2-methylpyrimidin-5-yl)-3′H-spiro[dihydroindole-3,4′-pyrrolo[3,4-d]imidazole]-2,6′(5′H)-dione] had an IC50 of 0.436 µM.
The result for `CCN(C)c1ncc(-c2nc3c(n2C(C)C)[C@]2(C(=O)Nc4cc(Cl)ccc42)N(c2cc(Cl)ccc2C)C3=O)c(OC)n1` [Example R-119, (R)-6-chloro-5′-(5-chloro-2-methylphenyl)-2′-(2-(ethyl(methyl)amino)-4-methoxypyrimidin-5-yl)-3′-isopropyl-3′H-spiro[dihydroindole-3,4′-pyrrolo[3,4-d]imidazole]-2,6′(5′H)-dione] reads 0.851 µM; that for `COc1cc(OC(F)(F)F)ccc1-c1nc2c(n1C(C)C)[C@]1(C(=O)Nc3cc(Cl)ccc31)N(c1cccc(Cl)c1)C2=O` [Example R-120, (R)-6-chloro-5′-(3-chlorophenyl)-3′-isopropyl-2′-(2-methoxy-4-(trifluoromethoxy)phenyl)-3′H-spiro[dihydroindole-3,4′-pyrrolo[3,4-d]imidazole]-2,6′(5′H)-dione], 4.78 µM.
For `COc1nc(C2CC2)ncc1-c1nc2c(n1C(C)C)[C@]1(C(=O)Nc3cc(Cl)ccc31)N(c1cc(Cl)ccc1C)C2=O` [Example R-121, (R)-6-chloro-5′-(5-chloro-2-methylphenyl)-2′-(2-cyclopropyl-4-methoxypyrimidin-5-yl)-3′-isopropyl-3′H-spiro[dihydroindole-3,4′-pyrrolo[3,4-d]imidazole]-2,6′ (5′H)-dione] the value was 0.3 µM; for `COc1nc(C2CC2)ncc1-c1nc2c(n1C(C)C)[C@]1(C(=O)Nc3cc(Cl)ccc31)N(c1cccc(Cl)c1)C2=O` [Example R-122, (R)-6-chloro-5′-(3-chlorophenyl)-2′-(2-cyclopropyl-4-methoxypyrimidin-5-yl)-3′-isopropyl-3′H-spiro[dihydroindole-3,4′-pyrrolo[3,4-d]imidazole]-2,6′(5′H)-dione], 0.794 µM.
The result for `CCOc1ncc(-c2nc3c(n2C(C)C)[C@]2(C(=O)Nc4cc(Cl)ccc42)N(c2cccc(Cl)c2)C3=O)c(OC)n1` [Example R-123, (R)-6-chloro-5′-(3-chlorophenyl)-2′-(2-ethoxy-4-methoxypyrimidin-5-yl)-3′-isopropyl-3′H-spiro[dihydroindole-3,4′-pyrrolo[3,4-d]imidazole]-2,6′(5′H)-dione] reads 0.116 µM.
Take `COc1nc(OC(C)C)ncc1-c1nc2c(n1C(C)C)[C@]1(C(=O)Nc3cc(Cl)ccc31)N(c1cccc(Cl)c1)C2=O` [Example R-124, (R)-6-chloro-5′-(3-chlorophenyl)-2′-(2-isopropoxy-4-methoxypyrimidin-5-yl)-3′-isopropyl-3′H-spiro[dihydroindole-3,4′-pyrrolo[3,4-d]imidazole]-2,6′(5′H)-dione]: the IC50 is 1.31 µM.
For `COc1cc(C#N)ccc1-c1nc2c(n1C(C)C)[C@]1(C(=O)Nc3cc(Cl)ccc31)N(c1cccc(Cl)c1)C2=O` [Example R-128, (R)-4-(6-chloro-5′-(3-chlorophenyl)-3′-isopropyl-2,6′-dioxo-5′,6′-dihydro-3′H-spiro[dihydroindole-3,4′-pyrrolo[3,4-d]imidazole]-2′-yl)-3-methoxybenzonitrile] the value was 0.612 µM.
